Pest or weed control and melting point data for nine compounds are collected here from US7767626B2, “3-arylphenyl sulfide derivative and insecticide and miticide” (Kumiai Chemical Industry Co., Ltd., priority 1998, dated 2010).

Where two headings read alike, the source gives them in different places.

For one series, the system named is two-spotted spider mites. The series can be described thus: Insecticidal test on two-spotted spider mites (Test Example 1). The format is in vivo. The note with it: Tetranychus urticae, 312 h, read-out: preventive value. From the text:
Test Example 1 Insecticidal Test on Two-Spotted Spider Mites

Setting [1] is: wettable powder diluted to 500 ppm active ingredient, soybean seedlings inoculated with adult mites immersed, survivors counted after 13 days, Equation 1.

With `CSc1cc(-c2ccccc2)c(C#N)c(N)c1[N+](=O)[O-]` [Comparative Compound 2, 2-amino-6-phenyl-4-methylthio-3-nitrobenzonitrile, reference compound], the pest or weed control at 500 µg/mL with two-spotted spider mites (setting [1]) is 0%.

Consider `N#Cc1ccc(-c2ccc(Cl)s2)cc1SCC1CC1` [I V-5, 4-(5-chlorothiophen-2-yl)-2-cyclopropylmethylthiobenzonitrile], for which the melting point (as a rule, the temperature of the solid-liquid transition) lay in the range of 123 to 124 °C. The pest or weed control at 500 µg/mL in the series on two-spotted spider mites (setting [1]) was no less than 90%.

Take `CSc1cc(-c2ccccc2)c(C#N)c(N)c1C#N` [Comparative Compound 1, 2-amino-6-methylthio-4-phenyl-benzene-1,3-dicarbonitrile, reference compound]: the pest or weed control at 500 µg/mL in the series on two-spotted spider mites (setting [1]) was 0%.

Compound `N#Cc1ccc(-c2ccc(C(F)(F)F)cn2)cc1SCC1CC1` [I I-5, 2-cyclopropylmethylthio-4-(5-trifluoromethylpyridin-2-yl)benzonitrile] gave a melting point of 135 to 136 °C. In addition, in the series with two-spotted spider mites (setting [1]), the pest or weed control at 500 µg/mL was no less than 90%.

`N#Cc1ccc(-c2n[nH]cc2C(F)(F)F)cc1SCC(F)(F)F` [Compound V-639, 2-(2,2,2-trifluoroethylthio)-4-(4-trifluoromethylpyrazolyl)benzonitrile]: the melting point is 90 to 91 °C. In addition, the pest or weed control at 500 µg/mL in the series on two-spotted spider mites (setting [1]) is no less than 90%.

In turn, `CCSc1cc(-c2ccc(Cl)cc2Cl)ccc1C#N` showed a melting point of 89 to 92 °C.

`C=CCSc1cc(-c2ccc(C(F)(F)F)cc2)ccc1C#N` [Compound I-42, 2-(2-propenylthio)-4-(4-trifluoromethylphenyl)benzonitrile] came in with a melting point of 89 to 90 °C. Also, the pest or weed control at 500 µg/mL in the series on two-spotted spider mites (in Glycine max) was no less than 90%.

With `CCOCOc1ccc(-c2ccc(C(F)(F)F)cc2)cc1SCC(F)(F)F` [Compound I-213, [2-ethoxymethoxy-5-(4-trifluoromethylphenyl)phenyl] 2,2,2-trifluoroethyl sulfide], in the series with two-spotted spider mites (in Glycine max), the pest or weed control at 500 µg/mL is no less than 90%.

Compound `CCCSc1cc(-c2ccc(C(F)(F)F)cc2)c(F)cc1[N+](=O)[O-]` [Compound I-221, [4-fluoro-2-nitro-5-(4-trifluoromethylphenyl)phenyl] propyl sulfide] yielded a melting point of 57 to 59 °C. Also, the pest or weed control at 500 µg/mL with two-spotted spider mites (in Glycine max) was no less than 90%.
